Seven compounds from patent publication US20240262860A1, “PENTACYCLIC TRITERPENOID GLYCOSIDE COMPOUND, AND PREPARATION METHOD THEREFOR AND USE THEREOF” (SHANGHAI INSTITUTE OF MATERIA MEDICA, CHINESE ACADEMY OF …, priority 2020, published 2024) can be followed below.

The structures appear in SMILES notation. “Also recorded” adds a separate entry of the source.

One data set relates to influenza virus. Type of data set: cell-based. Particulars: MDCK cells, screening concentration 50 μM, 36 h.
The test system of a further data set is MDCK cell. Description: Cytotoxicity in the anti influenza virus assay (MDCK cells). The data set is classed as cell-based. Particulars: screening concentration 50 μM. On the procedure:
CellTiter-Glo® Luminescent Cell Viability Assay
Screening concentration: 50 μM
MDCK cells were laid with 96 well plates (1×10^4/well) and incubated in 37° C. and 5% CO2 incubators for 24 h, then the medicine was added.
After dosing, the 96 well plate was put in the 37° C., 5% CO2 incubator for 36 h, and detected with the microplate reader.

The subject of the next data set is ICR mice. The experiment in a line: Oral glucose tolerance (OGTT) pharmacodynamic experiment in ICR mice. Type of data set: in vivo. The note with it: for hypoglycemic effect: OGTT; for hypoglycemic activity: oral glucose tolerance, glucose 5 g/kg, compound given 0.5 h before sugar. On the procedure:
1. Pharmacodynamic Experiment of Compound on Oral Glucose Tolerance in ICR Mice
After the animals arrived at WuXi AppTec facilities, they were kept in the animal feeding room with strictly controlled environmental conditions. The temperature was kept at 20-24° C. and the humidity was kept at 30-70% in the feeding room. The temperature and humidity of the feeding room were monitored in real time through the temperature and humidity meter, and the temperature and humidity were recorded twice a day (once in the morning and once in the afternoon). The lighting in the animal feeding room was controlled by an electronic timing lighting system, which was turned on for 12 hours every day and turned off for 12 hours (on at 7:00 a.m. and off at 19:00 p.m.). During the experiment, the animals were raised in a single cage and toys were provided for mice in each cage. During the experiment, the animals freely took food (growth/reproduction feed for rats and mice) and water.
After the animals arrived, they can adapt to the environment for 1-2 weeks before conducting the experiment.
1) Preparation of liquid medicine: each compound was prepared on the first day of the experiment, and then stored in a 4° C. refrigerator for use on the next day.
2) Administration: After grouping, animals in each group were administered 0.5 hours before sugar administration.
3) Oral glucose tolerance experiment: sugar was administrated to the animals by gavage 0.5 hour after the end of the animal administration, and the time of sugar administration was recorded as 0 min. The oral dose of glucose was 5 g/kg, 10 ml/kg. The blood glucose of animals was detected before administration, before sugar administration, and 15, 30, 60, 90, and 120 minutes after sugar administration. The blood glucose was detected with a blood glucose meter and the corresponding blood glucose test paper.

Data set [1] deals with intestinal endocrine cell line STC-1 cell. The experiment in a line: In vitro GLP-1 secretion in STC-1 cells (HTRF kit). Particulars: for EC50: 1 h treatment, read-out: EC50 of promoting GLP-1 secretion in vitro. Type of data set: cell-based. On the procedure: Cell line: intestinal endocrine cell line STC-1 cell
Positive control: INT777 (TGR5 receptor agonist)
Others: KRBH buffer, BSA, DPP4 inhibitor
STC-1 cells were seeded with a certain density. After the cells adhered to the wall overnight, they were starved with KRBH buffer, while BSA was used to maintain nutrition, and degradation of GLP-1 was reduced with DPP4 inhibitors. After 1 h, they were replaced with glucose free or glucose containing KRBH buffer to stimulate GLP-1 secretion. At the same time, compounds of certain concentrations were added. After 1 h of treatment, supernatant was collected and tested for GLP-1 concentration with HTRF kit. The secretion of LDH was also detected to indicate the toxicity of the compounds.
On the technique in general: In TR-FRET formats the signal depends on donor and acceptor labels being close together.

The next data set in a line: PK property in mice. Type of data set: in vivo, ICR (CD-1) mice. Particulars: PO 25 mg/kg, IV 3 mg/kg. On the procedure: Species/strain: ICR (CD-1) mice
Gender/number of rats: male (n=6)
Weight (g): male (20-24 g)
Type of diet: standard rodent diet • freely drink • Fasted for 12 hours before administration and keeping fasting for 2 hours.
Feeding: animal room environment control (target conditions: temperature 18 to 29° C., relative humidity 30 to 70%. Temperature and relative humidity were monitored every day. The electronic time control lighting system was used to provide 12 hours of light/12 hours of dark cycle.

The test system of a further data set is SARS Cov-2 virus. Description: SARS Cov-2 virus replication inhibition in Vero E6 cells (viral copy number by qPCR). The data set is classed as cell-based. Particulars: Severe acute respiratory syndrome coronavirus 2, Vero C1008, MOI 0.05, 24 hours.

As to `CC1(C)CC[C@]2(C(=O)O)CC[C@]3(C)C(=CCC4[C@@]5(C)CC[C@H]([C@@H](O)[C@@H]6OC(CO)[C@@H](O)C(O)C6O)C(C)(C)C5CC[C@]43C)C2C1` (stereo partly drawn) [Example A2, (3S,5S,8R,9R,10S,14R,17R,18S)-Oleanolicacid-3-(1′R)-(hydroxyl)methyl-β-D-glucopyranoside], the virus inhibition rate entry with influenza virus was “same virus inhibition rate”. The cytotoxicity result in the data set on MDCK cell is “low cytotoxicity; also recorded: lower cytotoxicity than that of ribavirin”.
As for `CC1(C)CC[C@]2(C(=O)O)CC[C@]3(C)C(=CCC4[C@@]5(C)CC[C@H]([C@@H](O)[C@@H]6OC(C(=O)O)[C@@H](O)C(O)C6O)C(C)(C)C5CC[C@]43C)C2C1` (stereo partly drawn) [Example A25, (3S,5S,8R,9R,10S,14R,17R,18S)-Oleanolic acid-3-(1′R)-(hydroxy)methyl-β-D-glucurouopyranoside], the results for the hypoglycemic effect result in the data set with ICR mice (25 mg/kg) and with ICR mice (50 mg/kg) were “obvious hypoglycemic effect” and “further enhanced hypoglycemic effect”, respectively. Further, the hypoglycemic activity result in the data set with ICR mice is reported as “good in vivo hypoglycemic effect; also recorded: best hypoglycemic activity”.
For `CC1O[C@@H]([C@H](O)[C@H]2CC[C@@]3(C)C(CC[C@]4(C)C3CC=C3C5CC(C)(C)CC[C@]5(C(=O)O)CC[C@]34C)C2(C)C)C(O)C(O)[C@H]1O` (stereo partly drawn) [Example A43, (3S,5S,8R,9R,10S,14R,17R,18S)-Oleanolic acid-3-(1'S)-(hydroxy)methyl-α-L-rhamnopyranoside], in that order: “obvious hypoglycemic effect”, “further enhanced hypoglycemic effect” and “good in vivo hypoglycemic effect; also recorded: best hypoglycemic activity”.
As for `CC1(C)CC[C@]2(C(=O)O)CC[C@]3(C)C(=CCC4[C@@]5(C)CC[C@@H](C[C@@H]6OC(C(=O)O)[C@@H](O)C(O[C@@H]7OC[C@@H](O)C(O)C7O)C6O)C(C)(C)C5CC[C@]43C)C2C1` (stereo partly drawn) [Example A64, (3R,5S,8R,9R,10S,14R,17R,18S)-Oleanolic acid-3-methyl-β-D-xylopyranosyl(1→3)-β-D-glucurouopyranoside], in data set [1], the “in vitro effect of promoting GLP-1 secretion” value was “good in vitro effect of promoting GLP-1 secretion” and the 50% effective concentration (EC50) is 7.23 µM.
As to `CC1(C)CC[C@]2(C(=O)OCn3cccn3)CC[C@]3(C)C(=CCC4[C@@]5(C)CC[C@H]([C@@H](O)[C@@H]6OC(C(=O)O)[C@@H](O)C(O)C6O)C(C)(C)C5CC[C@]43C)C2C1` (stereo partly drawn) [Example A104, (3S,5S,8R,9R,10S,14R,17R,18S)-28-O-(Pyrazol-1″′-yl)methyl oleanolic acid-3-(1′R)-(hydroxy)methyl-β-D-glucurouopyranoside], the PK properties result in the data set “PK property in mice” is on record as “good PK properties”. In addition, in the data set on SARS Cov-2 virus, the midpoint of the response, the EC50, lay at 3.6 µM.
The compound `CNC(=O)C1O[C@@H]([C@H](O)[C@H]2CC[C@@]3(C)C(CC[C@]4(C)C3CC=C3C5CC(C)(C)CC[C@]5(C(=O)O)CC[C@]34C)C2(C)C)C(O)C(O)[C@@H]1O` (stereo partly drawn) [Example A114, (3S,5S,8R,9R,10S,14R,17R,18S)-Oleanolic acid-3-(1′R)-(hydroxy)methyl-6″-methylamino-β-D-glucurouopyranoside] yielded a concentration for a half-maximal effect (EC50) with SARS Cov-2 virus of 4.6 µM.
Take `CC[C@H]1[C@@H](O)[C@@H]2[C@H](C[C@H](O)[C@]3(C)[C@@H]([C@H](C)C[C@H](C)C(=O)O)CC[C@@H]23)[C@@]2(C)CC[C@@H](O)C[C@@H]12` [INT777, reference compound]: the half-maximal effective concentration (EC50) in data set [1] stood at 22.8 µM.

What is called EC50 is the concentration needed to bring the measured effect to its halfway point.
